Test results as given in PMC9283742 (Clinical and Translational Science, 2022).
Where two headings read alike, the source gives them in different places.

What was measured:
[1] = format: in vivo, human; conditions: for AUC(0-inf) / AUC(0-t) / Cmax: human, plasma, 40 mg, adjusted G mean, linear mixed effects model; for AUC(0-inf): AUCinf; for AUC(0-t): AUClast
[2] = format: in vivo, human; conditions: for decrease in Cmax: with rabeprazole vs asciminib alone
[3] = format: in vitro ADME; conditions: for dissolution rate: 40 mg asciminib, 900 ml, 37°C
[4] = In vitro binding constant of asciminib and cyclodextrin; format: physicochemical
[5] = weak base; cited from earlier work
[6] = 40 mg asciminib b.i.d., cited from earlier work
[7] = aqueous solution; cited from earlier work
[8] = cited from earlier work
[9] = administered concomitantly with an itraconazole capsule formulation; cited from earlier work
[10] = oral, Cohort 2, asciminib ± quinidine
[11] = oral, Cohort 3, asciminib ± rifampicin
[12] = oral, Cohort 5, asciminib ± clarithromycin
[13] = po, Cohort 1, asciminib ± itraconazole (oral solution)
[14] = with clarithromycin vs asciminib alone, cohort 5
[15] = with itraconazole (oral solution) vs asciminib alone, cohort 1
[16] = with itraconazole oral solution vs asciminib alone
[17] = with quinidine vs asciminib alone, cohort 2
[18] = with rifampicin vs asciminib alone, cohort 3

O=C(Nc1ccc(OC(F)(F)Cl)cc1)c1cnc(N2CC[C@@H](O)C2)c(-c2ccn[nH]2)c1 [Asciminib]
AUC(0-inf) [1, 10]: 6750 ng·h/mL | AUC(0-inf) [1, 11]: 5630 ng·h/mL | AUC(0-inf) [1, 12]: 5740 ng·h/mL | AUC(0-t) [1, 10]: 6700 ng·h/mL | AUC(0-t) [1, 11]: 5400 ng·h/mL | AUC(0-t) [1, 12]: 5670 ng·h/mL | Cmax [1, 10]: 618 ng/mL | Cmax [1, 11]: 559 ng/mL | AUC(0-inf) [1, 13]: 7000 ng·h/mL | AUC(0-t) [1, 13]: 6950 ng·h/mL | Cmax [1, 13]: 679 ng/mL | increase in asciminib exposure ([1]; with clarithromycin vs asciminib alone): ~ 35% | increase in AUCinf [1, 14]: 36% | increase in AUClast [1, 14]: 37% | increase in Cmax [1, 14]: 19% | decrease in G mean of AUCinf [1, 15]: 40.2% | decrease in G mean of AUClast [1, 15]: 41.2% | increase in asciminib exposure ([1]; with itraconazole capsule vs asciminib alone): ~ 3% | decrease in asciminib Cmax [1, 16]: ~ 50% | decrease in asciminib exposure (AUC) [1, 16]: ~ 40% | decrease in asciminib Cmax ([1]; with itraconazole oral solution vs asciminib alone, listed as asciminib): 50.1% | decrease in asciminib AUC ([1]; with quinidine vs asciminib alone): 13–16% | decrease in AUCinf [1, 17]: 12.9% | decrease in AUClast [1, 17]: 16.0% | decrease in Cmax [1, 17]: 11.3% | decrease in asciminib AUC (exposure) ([1]; with rifampicin vs asciminib alone): 13–15% | decrease in AUCinf [1, 18]: 14.9% | decrease in AUClast [1, 18]: 12.7% | increase in Cmax [1, 18]: 9% | decrease in asciminib AUC (exposure) ([1]; with rifampicin vs asciminib alone, listed as asciminib): 15% | AUC(0-inf) ([2]; human, plasma, oral, 40 mg): 9850 ng·h/mL | AUC(0-t) ([2]; human, plasma, oral, 40 mg): 9200 ng·h/mL | Cmax ([2]; human, plasma, oral, 40 mg): 943 ng/mL | AUC(0-inf) ([2]; human, plasma, po, 40 mg): 9850 ng·h/mL | AUC(0-t) ([2]; human, plasma, po, 40 mg): 9200 ng·h/mL | Cmax ([2]; human, plasma, po, 40 mg): 943 ng/mL | half-life ([2]; human, plasma, po, 40 mg): 12.6 h | decrease in Cmax [2]: 9% | decrease in Cmax ([2]; listed as asciminib): ~ 9% | dissolution rate ([3]; FaSSIF V2 media alone): 87% | flux ([3]; FaSSIF V2 media alone, acceptor volume 12 ml): 1.29 µg/min | calculated flux ([3]; FaSSIF V2 media alone, membrane area 3.88 cm^2): 0.332 μg/min*cm^2 | dissolution rate ([3]; FaSSIF V2 media with added cyclodextrin): 105% | calculated flux ([3]; FaSSIF V2 plus cyclodextrin): 0.071 μg/min*cm^2 | flux rate ([3]; FaSSIF V2 plus cyclodextrin): 0.28 µg/min | decrease of asciminib flux through a lipid membrane ([3]; by cyclodextrin): ~ 80% | drop in binding constant ([4]; FaSSIF V2 and 0.3× FeSSIF V2 vs buffer): ~ 65 fold | binding to cyclodextrin ([4]; acidic pH of FaSSGF and high bile component concentration of FeSSIF V2): practically no binding | pK a [5]: 4.0 | AUC0–12 h at steady-state, G mean ([6]; Japanese subjects (n = 5), GCV% 22.8): 6450 ng·h/mL | AUC0–12 h at steady-state, G mean ([6]; non-Japanese subjects (n = 8), GCV% 39.4): 5370 ng·h/mL | pH-dependent solubility [7]: high at acidic pH and decreases with increasing pH

C[C@H]1CN(C2COC2)CCN1c1ccc(Nc2cc(-c3ccnc(N4CCn5c(cc6c5CC(C)(C)C6)C4=O)c3CO)cn(C)c2=O)nc1 [fenebrutinib]
in vitro binding constant with cyclodextrin [8]: 200,000 /M

CCc1cc(/C(C)=N/OCc2ccc(C3CCCCC3)c(C(F)(F)F)c2)ccc1CN1CC(C(=O)O)C1 [siponimod]
decrease in exposure [9]: 10%–24%
